Reference: patent US20210386704A1, “MDMA RESPONSE PREDICTION” (Universitätsspital Basel, priority 2020, published 2021)

How the values were obtained:
[1] = poor vs extensive/normal metabolizers; de la Torre et al., 2005; Schmid et al., 2016; cited from earlier work
healthy human subjects [2] = test: Pooled analysis: autonomic response to MDMA (blood pressure, heart rate, body temperature; Emax)
[3] = Pooled analysis of ten placebo-controlled crossover studies: MDMA plasma concentration (AUC 0-6 h)
healthy human subjects [4] = test: Pooled analysis: subjective response to MDMA (VAS, AMRS, 5D-ASC)

## CNC(C)Cc1ccc2c(c1)OCO2 (racemic) [MDMA, (±)3,4-methylenedioxymethamphetamine]
[1]
  MDMA blood plasma concentrations in CYP2D6 poor metabolizers: higher MDMA blood plasma concentrations than extensive/normal metabolizers
Healthy human subjects [2]; LASSO model (FIG. 3)
  Heart rate increase, relation to older age: lower heart rate increase
  Temperature increase, relation to older age: lower temperature increase
Healthy human subjects [2]; adjusted for dose per body weight (FIG. 2), p<0.05
  Heart rate, correlation with age: inverse correlation between heart rate and age remained significant
[3]; adjusted for dose per body weight (FIG. 2), p<0.01
  MDMA plasma concentration, relation to genetically determined CYP2D6 activity: still inversely correlated with the MDMA plasma concentration
[3]; poor vs extensive CYP2D6 metabolizers (FIGS. 1 and 2)
  MDMA concentrations and response in subjects with poor CYP2D6 activity: higher MDMA concentrations and a stronger MDMA response compared with CYP2D6 extensive metabolizers
[3]; similar total doses, not accounting for body weight
  MDMA plasma AUC over 6 hours, women vs men: women exhibit significantly higher MDMA plasma AUC than men
Healthy human subjects [4]; LASSO model (FIG. 3)
  Bad drug effect, relation to older age: higher bad drug effect
  Strongest predictor of outcome effects after MDMA (plasma AUC, MAP increase, AMRS, VAS, 5D-ASC ratings): dose per body weight is the strongest predictor
Healthy human subjects [4]; adjusted for dose and body weight (FIG. 2)
  Sex as predictor of response: lost its predictor value
Healthy human subjects [4]; dose-adjusted (FIG. 2)
  Effect of well-being (AMRS) before MDMA on response: no significant effect as predictor variable on the response to MDMA
Healthy human subjects [4]; dose-adjusted (FIG. 2), both p<0.01 and both p<0.05
  Dread of ego dissolution and impaired control and cognition (5D-ASC) in subjects with higher neuroticism (NEO-FFI) and trait anxiety (STAI-T): more likely to experience “dread of ego dissolution” and “impaired control and cognition”
Healthy human subjects [4]; dose-adjusted (FIG. 2), p<0.05, p<0.05, p<0.01
  Closeness (VAS), oceanic boundlessness and visionary restructuralization (5D-ASC), relation to openness to experience (NEO-FFI): positively correlated
Healthy human subjects [4]; past use within the range of 0-5 times (FIG. 2 and FIG. 3)
  Effect of past use of MDMA on response: no significant effect on the response to MDMA
Healthy human subjects [4]; within range of doses tested (75 and 125 mg)
  Good drug effect / positive effects, relation to dose: a high dose of MDMA (>75 mg) is needed to produce greater positive effects
Healthy human subjects [4]; within the 75-125 mg absolute dose range (FIG. 1)
  Intensity of response at high dose of MDMA per body weight: more intense response to MDMA with more positive and more cardiostimulant effects
